# Measured values taken from PubChem BioAssay (NCI).
#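 Values below derive from 48-hour exposures of cells grown in 96-well plates, with endpoints linearly interpolated between the two concentrations bracketing the appropriate inhibition level. TGI marks complete inhibition of growth.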
# Legend:
# Experiment in all cases: NCI anticancer screen, dose series, 48 h
# [1] = system: MDA-MB-435
# [2] = system: ACHN renal
# [3] = system: U251 CNS
# [4] = system: SN12C renal
# [5] = system: SK-MEL-5 melanoma
# [6] = system: SR leukemia
# [7] = system: HT29 colon
# [8] = system: SF-268 CNS
# [9] = system: MDA-N
# [10] = system: M14 melanoma
# [11] = system: PC-3 prostate
# [12] = system: SNB-19 CNS
# [13] = system: UO-31 renal
# [14] = system: A498 renal
# [15] = system: RXF 393 renal
# [16] = system: NCI/ADR-RES ovarian
# [17] = system: OVCAR-4 ovarian
# [18] = system: NCI-H23 lung
# [19] = system: COLO 205 colon
Structure (SMILES),TGI [1],TGI [2],TGI [3],TGI [4],TGI [5],TGI [6],TGI [7],TGI [8],TGI [9],TGI [10],TGI [11],TGI [12],TGI [13],TGI [14],TGI [15],TGI [16],TGI [17],TGI [18],TGI [19]
CNCCCNC1(c2cc3ccccc3s2)CCCCC1,5.86 µM,26.9 µM,16.4 µM,18.4 µM,5.68 µM,3.44 µM,7.94 µM,25.3 µM,5.85 µM,8.06 µM,21.5 µM,24.8 µM,7.36 µM,14.1 µM,12.2 µM,29.9 µM,27 µM,30.6 µM,3.8 µM
CC(C)(O)CO/N=C1\C(c2c(O)[nH]c3ccccc23)=Nc2ccccc21,> 42.3 µM,8.01 µM,> 68.4 µM,> 80.1 µM,2.28 µM,> 100 µM,> 35 µM,> 60 µM,> 45 µM,> 43.3 µM,12.4 µM,> 52.6 µM,5.09 µM,3.63 µM,2.48 µM,> 64.8 µM,21.9 µM,12.7 µM,2.29 µM
COC(=O)Cc1c(/C=C/C(C)(C)n2cnc(CCN3C(=O)CCC3=O)c2)[nH]c2ccccc12,> 100 µM,> 100 µM,> 100 µM,> 100 µM,> 100 µM,> 100 µM,> 100 µM,> 100 µM,> 100 µM,> 100 µM,> 100 µM,> 100 µM,> 100 µM,> 100 µM,> 100 µM,> 100 µM,> 100 µM,> 100 µM,> 100 µM
O=C1N=NC(=O)N1c1cc(C(F)(F)F)cc(C(F)(F)F)c1,33.2 µM,14.2 µM,12.4 µM,13.8 µM,7.62 µM,> 53.1 µM,8.1 µM,17.3 µM,20.4 µM,24.3 µM,12.8 µM,> 40.8 µM,7.89 µM,25.4 µM,12.4 µM,11.5 µM,27.5 µM,6.48 µM,3.35 µM
Cc1ccc([N+](=O)[O-])cc1S(=O)(=O)Nc1ccc(C2=NN(C(=O)c3ccccc3)C(c3cccs3)C2)cc1 (stereo unspecified),> 100 µM,> 100 µM,> 100 µM,66.3 µM,32.7 µM,> 100 µM,> 100 µM,> 100 µM,77.4 µM,> 100 µM,> 100 µM,> 100 µM,> 100 µM,50.8 µM,56.8 µM,> 100 µM,> 100 µM,61.7 µM,32.8 µM
O=[N+]([O-])C(=C(N1CCCCC1)N1CCCCC1)/C(Cl)=C(\Cl)[N+](=O)[O-],19.3 µM,9.24 µM,46 µM,4.8 µM,11 µM,> 100 µM,12.5 µM,25.4 µM,13.3 µM,21.7 µM,30 µM,36 µM,8.11 µM,32.1 µM,2.94 µM,50.7 µM,22.8 µM,14 µM,11.5 µM
CC1(C)CCCCCCC2CC2CCCCCC(C)(C)C1=O (stereo unspecified),> 100 µM,> 100 µM,> 100 µM,> 100 µM,> 100 µM,20.7 µM,> 100 µM,> 100 µM,> 100 µM,> 100 µM,> 100 µM,> 100 µM,> 100 µM,> 100 µM,> 100 µM,> 100 µM,> 100 µM,> 100 µM,> 100 µM
COC(=O)C1(Cc2cccc(C)c2)Cc2c(C)cccc2C1=O (stereo unspecified),41.3 µM,> 100 µM,> 100 µM,> 100 µM,> 100 µM,> 100 µM,89.7 µM,> 100 µM,34.5 µM,> 100 µM,> 100 µM,> 100 µM,> 100 µM,> 100 µM,> 100 µM,72.2 µM,> 100 µM,> 100 µM,> 100 µM
N#C/C(C(=S)Nc1ccccc1)=C(/N)N1CCCC1,> 100 µM,> 100 µM,> 100 µM,> 100 µM,> 100 µM,> 100 µM,> 100 µM,> 100 µM,> 100 µM,> 100 µM,> 100 µM,> 100 µM,> 100 µM,> 100 µM,> 100 µM,> 100 µM,> 100 µM,> 100 µM,> 100 µM
Cc1coc2c1C(=O)C(=O)c1c-2ccc2c1CCCC2(C)C,2.88 µM,> 100 µM,> 100 µM,> 30.1 µM,1.19 µM,7.03 µM,42.4 µM,> 100 µM,2.8 µM,2.46 µM,> 44.7 µM,22.8 µM,14.2 µM,25.6 µM,> 100 µM,> 100 µM,> 100 µM,2.8 µM,22.5 µM
COc1cc(C2S/C(=C/c3ccccc3)C(=O)N2c2cc(Cl)c(Cl)cc2Cl)cc(OC)c1OC (stereo unspecified),> 100 µM,> 100 µM,> 100 µM,> 100 µM,> 100 µM,> 69.4 µM,> 100 µM,> 100 µM,> 100 µM,> 100 µM,> 100 µM,> 100 µM,> 100 µM,> 78 µM,> 100 µM,> 100 µM,> 100 µM,> 100 µM,> 100 µM
CCOC(=O)c1[nH]cc(C)c1-c1c[nH]c2ccccc12,> 100 µM,> 71.4 µM,> 100 µM,> 100 µM,34.5 µM,> 39.4 µM,> 82.6 µM,> 100 µM,> 83.8 µM,> 100 µM,> 82.7 µM,> 100 µM,48.1 µM,> 100 µM,> 80 µM,72.5 µM,> 100 µM,> 100 µM,58.9 µM
O=[N+]([O-])c1ccc(N/N=C(\c2ccccc2)c2ccccn2)nc1,> 95.3 µM,18.7 µM,> 81.8 µM,> 68.9 µM,26.5 µM,> 83.7 µM,> 100 µM,35.5 µM,> 100 µM,13.8 µM,> 44.7 µM,> 42.5 µM,4.69 µM,> 100 µM,31.8 µM,2.02 µM,> 100 µM,14.9 µM,> 60 µM
Cc1ccc2c(c1)C(C1Cc3cccc(C)c3C1=O)OC2=O (stereo unspecified),> 100 µM,> 100 µM,> 100 µM,> 100 µM,> 100 µM,> 100 µM,> 100 µM,> 100 µM,> 100 µM,> 100 µM,> 100 µM,> 100 µM,> 100 µM,> 100 µM,> 100 µM,> 100 µM,> 100 µM,> 100 µM,> 100 µM
COc1ccc2oc(=O)c(-c3nc4ccccc4o3)cc2c1,> 100 µM,> 100 µM,> 100 µM,> 100 µM,> 100 µM,49.7 µM,> 100 µM,> 100 µM,> 100 µM,> 100 µM,> 100 µM,> 100 µM,> 100 µM,> 100 µM,> 100 µM,> 100 µM,> 100 µM,> 100 µM,> 100 µM
CC1=NN(C(=O)CC(=O)Nc2cccc(C)c2)C(=O)C1N=Nc1ccc(S(=O)(=O)c2ccc(N=NC3C(=O)N(C(=O)CC(=O)Nc4cccc(C)c4)N=C3C)cc2)cc1 (stereo unspecified),> 100 µM,> 100 µM,> 100 µM,> 100 µM,> 100 µM,> 100 µM,> 100 µM,> 100 µM,> 100 µM,> 100 µM,> 100 µM,> 100 µM,> 100 µM,> 100 µM,> 100 µM,> 100 µM,> 100 µM,> 100 µM,> 100 µM
CC1OC(OC2C(CO)OC(O[C@H]3CC[C@@]4(C)C(=CC[C@H]5[C@@H]6C[C@@H]7O[C@](O)(CC[C@H](CO)COC8OC(CO)C(O)C(O)C8O)[C@@H](C)[C@@H]7[C@@]6(C)CC[C@@H]54)C3)C(OC3OC(C)C(O)C(O)C3O)C2O)C(O)C(O)C1O (stereo partly specified),> 100 µM,> 100 µM,> 100 µM,> 100 µM,> 100 µM,> 100 µM,> 100 µM,> 100 µM,> 100 µM,> 100 µM,> 100 µM,> 100 µM,> 100 µM,> 100 µM,> 100 µM,> 100 µM,> 100 µM,> 100 µM,> 100 µM
C=C(C)[C@@H]1CCC2=C[C@H](OC2=O)[C@@]2(C)C[C@@H]2C(=O)/C=C(/C)C(=O)[C@H]1OC(C)=O,> 65.2 µM,> 48.2 µM,> 68 µM,> 56.9 µM,29.7 µM,> 37.8 µM,> 48.4 µM,> 72.6 µM,> 35.8 µM,> 100 µM,> 46.1 µM,> 73.7 µM,> 100 µM,57.8 µM,> 48 µM,> 100 µM,> 63.6 µM,> 58.5 µM,45.3 µM
O=C1C(c2c(O)[nH]c3ccccc23)=Nc2ccc(Br)cc21,> 100 µM,77 µM,48 µM,> 100 µM,> 100 µM,> 100 µM,> 100 µM,90.2 µM,> 100 µM,> 100 µM,49.7 µM,76.2 µM,70.7 µM,21 µM,31 µM,> 100 µM,69.5 µM,> 100 µM,> 100 µM
CCC1c2[nH]c3ccccc3c2C[C@H]2C(=O)NC(CCCCNC(=O)OC(C)(C)C)C(=O)N12 (stereo partly specified),44.3 µM,> 100 µM,> 100 µM,> 100 µM,38.8 µM,92.8 µM,99.3 µM,> 100 µM,54.9 µM,40.9 µM,58.7 µM,> 100 µM,> 100 µM,> 100 µM,> 100 µM,74.6 µM,> 100 µM,59.6 µM,66.9 µM
Cn1c(=O)cc(N=Nc2ccc(Cl)c(Cl)c2)[nH]c1=O,40.5 µM,47.4 µM,56.3 µM,> 100 µM,> 100 µM,54 µM,38.6 µM,51.1 µM,37.4 µM,47.7 µM,56.1 µM,> 100 µM,> 100 µM,> 100 µM,63.6 µM,77.4 µM,61.7 µM,86.5 µM,60.5 µM
CCC1c2[nH]c3ccccc3c2C[C@H]2C(=O)N3CCC[C@H]3C(=O)N12 (stereo partly specified),> 100 µM,> 100 µM,> 100 µM,> 100 µM,> 100 µM,> 100 µM,> 100 µM,> 100 µM,> 100 µM,> 100 µM,> 100 µM,> 100 µM,> 100 µM,> 100 µM,> 100 µM,> 100 µM,> 100 µM,> 100 µM,> 100 µM
CC(C)n1c(=O)[nH]n(-c2ccccc2)c1=O,> 100 µM,> 100 µM,> 100 µM,> 100 µM,> 100 µM,> 100 µM,> 100 µM,> 100 µM,> 100 µM,> 100 µM,> 100 µM,> 100 µM,> 100 µM,> 100 µM,> 100 µM,> 100 µM,> 100 µM,> 100 µM,> 100 µM
CC(=O)OC[C@@]1(C)[C@@H]2[C@@H]3[C@@]4(CO[C@]3(C)C(=O)[C@@]3(O)C[C@H](C)[C@H](OC(C)=O)[C@@H]3[C@H]4OC(C)=O)[C@H](OC(=O)c3ccccc3)C[C@@H]21,> 100 µM,> 100 µM,> 100 µM,> 100 µM,> 100 µM,> 100 µM,> 100 µM,> 100 µM,> 100 µM,> 100 µM,> 100 µM,> 100 µM,> 100 µM,> 100 µM,> 100 µM,> 100 µM,> 100 µM,> 100 µM,> 100 µM
